{
  "source": "patent US20260355180A1",
  "about": "“COMPOSITIONS AND METHODS FOR SPLICEOSOME-TARGETED THERAPIES” (Institute for Cancer Research d/b/a The Research Institute …, priority 2022, published 2026)",
  "key": {"[1]": {"test_system": "H446 KO cells", "test": "CytoToxicity of PlaB in TNFR1-, TRADD-, FADD-, CASP8-KO H446 cells (trypan blue)", "format": "cell-based, human", "conditions": "2.5 nM PlaB, 18 hrs", "from_the_text": "(§1) […]: CytoToxicity analysis of PlaB in TNFR1-KO and TRADD-KO H82 cells […] and H446 cells (FIG. 16B). CytoToxicity analysis of PlaB in FADD-KO and CASP8-KO H82 cells (FIG. 16C) and H446 cells (FIG. 16D). EV refers to cells treated with an empty vector.\n(§2) Since RIPK1 mediated apoptosis can be triggered by TNF110, TNFR1 and TRADD-KO SCLC cell lines are generated herein for subsequent studies. Here, we utilize CRISPR-Cas9 KO to effectively knockout TNFR1 and TRADD in SCLC cells. To confirm depletion of TNFR1 and TRADD proteins, cell lysates are collected and western blot analysis is performed. The following experiments are performed using the TNFR1 and TRADD-KO SCLC cells generated above.\n(§3) H82 and H446 WT and TNFR1 and TRADD-KO cells generated above are treated with DMSO or 2.5 nM PlaB for 18 hrs. Then, the cells are counted using 0.4% trypan blue solution assessing total viable cells and the percent of cell survived with the H82 and H446 WT cells is compared. (FIG. 15A-15B) This allows us to confirm whether TNF is partially or fully responsible for PlaB-mediated cell death in SCLC cell lines.\n(§4) Additionally, we analyzed the role played by FADD and CAPS8 in rescuing H82 and H446 cells from PlaB induced toxicity. Using the methods described above for the generation of TNFR1 and TRADD-KO cells, H82 and H446 FADD-KO cells and H82 and H446 CASP8-KO cells were generated. These cells were then treated with DMSO or 2.5 nM PlaB for 18 hrs and compared to WT H82 and H446 cells. […] (FIG. 15C and FIG. 15D)"}, "[2]": {"test_system": "MEF ΔZBP1 cells", "test": "A-RNA and Z-NA accumulation in MEF ΔZBP1", "format": "cell-based, mouse", "method": "(§5) FIG. 5A-5E: SF3B1 perturbation upregulates A-RNA and Z-nucleic acids in MEFs. (FIG. 5A) 5 nM of PlaB induces A-RNA and Z-Nucleic acids in ΔZBP1 MEF cells. (FIG. 5B) Quantification of A-RNA and Z-Nucleic acids. […] Plots of signal intensity are mean±SEM, two-tailed unpaired Student's t test *p<0.05, ***p<0.001, ****p<0.0001. 18 hours of PlaB treatment for IF, WB and rescue experiments. IF: 5 nM PlaB, WB and rescue experiments: 2.5 nM PlaB.\n(§6) Since induction of Z-nAs can result in ZBP1-dependent necroptosis, we analyzed induction of necroptosis in necroptotic competent MEFs using spliceosome inhibition. […] We also determined that MEFs ΔZBP1, WT, and Flag-ZBP1 cells treated with PlaB began dying within 24hours after treatment. With MEF Flag-ZBP1 cells showing only 20% survival after 24 hours (FIG. 16)."}, "[3]": {"test_system": "H446 SCLC cells", "test": "RIPK1 depletion rescue of PlaB cytotoxicity, H446", "format": "cell-based, human", "conditions": "18 hours of PlaB, RIPK1 depleted H446", "method": "FIG. 2A) SCLC cell lines (H446 and H82) and immortalized fibroblasts (FC1010 and HS68) cell survival curves after 72 hours of PlaB treatment. FIG. 2B) RIPK1 depletion rescues H82 and H446 cell survival after 18 hours of PlaB treatment. FIG. 2C) Western blot showing RIPK1 protein depletion. Mean±SEM, Welch's t test *p<0.05, **p<0.01.\nCancer deregulates splicing^31,32, and we hypothesized that hyper-proliferative SCLCs are dependent on splicing machineries for increased tumorigenicity^90."}, "[4]": {"test_system": "H82 KO cells", "test": "CytoToxicity of PlaB in TNFR1-, TRADD-, FADD-, CASP8-KO H82 cells (trypan blue)", "format": "cell-based", "conditions": "2.5 nM PlaB, 18 hrs", "from_the_text": "as §1, §2, §3, §4"}, "[5]": {"test_system": "wild type RPPM631 cells", "test": "Viability of wild type RPPM631 cells", "format": "cell-based, mouse", "conditions": "PlaB", "from_the_text": "Next, we prepared ZBP1-KO RPPM631 cells to determine whether the necroptosis was ZBP-1 dependent."}, "[6]": {"test_system": "MEF ΔZα cells", "test": "A-RNA and Z-NA accumulation in MEF ΔZα", "format": "cell-based, mouse", "conditions": "SF3B1 inhibition"}, "[7]": {"test_system": "WT MEF cells", "test": "Survival of PlaB treated MEF WT", "format": "cell-based, mouse", "method": "(§7) FIG. 16: Analysis of the effect of spliceosome inhibition on necroptosis in WT MEF cells. EV refers to cells treated with an empty vector.\nas §6"}, "[8]": {"test_system": "MEF Flag-ZBP1 cells", "test": "Survival of PlaB treated MEF Flag-ZBP1", "format": "cell-based, mouse", "method": "as §7, §6"}, "[9]": {"test_system": "MEF cells", "test": "A-RNA and Z-NA in MEF after PlaB with or without nucleases", "format": "cell-based, mouse", "method": "FIG. 11A-11B: Analysis of Z-NA and A-RNA sources. (FIG. 11A) […] A-Nucleic acid accumulation in MEF cells after treatment with PlaB with or without Dnasel, RnaseA, or Rnase H. (FIG. 11B) Quantification of A-RNA and Z-Nucleic acids in treated cells. MEF EV refers to MEF cells treated with an empty vector.\nThe increases in A-RNA and Z-NA was further analyzed in MEF cells. Cells were treated with PlaB alone, or in combination with dNasel (dsDNA), rNaseA(dsRNA at [high]), or […] (DNA/RNA hybrid). […] (FIG. 11A-11B)."}, "[10]": {"test_system": "H446 cells", "test": "Immunofluorescence of A-RNA (J2) and Z-NA (Z22), H446", "format": "cell-based, human", "from_the_text": "FIG. 4A-4C: SF3B1 perturbation increases dsRNA and Z-nucleic acid levels in treated cells. […] (FIG. 4B) Quantification of A-RNA and Z-Nucleic acids. (FIG. 4C) Western blot showing induction of cleaved-PARP, pH2AX, and ZBP1, and the reduction of RIPK1 protein levels. Plots of signal intensity are mean±SEM, two-tailed unpaired Student's t test **p<0.01, ****p<0.0001.\nOur observations led us to explore what caused the elevated IFN response. We used an immunofluorescence (IF) technique to determine if A-RNA was increased after PlaB treatment."}, "[11]": {"test_system": "MEF RA cells", "test": "pMLKL western blot / necroptosis, MEF RHIM-A mutant (RA)", "format": "cell-based, mouse", "conditions": "2.5 nM PlaB, 18 hours", "method": "as §5, §6"}, "[12]": {"conditions": "PlaB and dNasel, rNaseA, or RnaseH"}},
  "data": [
    {"smiles": "CCC(O)C(C)C1OC1CC(C)C=CC=C(C)C1OC(=O)CC(O)CCC(C)(O)C(OC(C)=O)C=CC1C", "note": "(centres unmarked) [PlaB, Pladienolide B]", "values": [
      {"measurement": "rescue from PlaB toxicity by CASP8-KO", "setting": "[1]; H446 CASP8-KO", "result": "effectively rescued"},
      {"measurement": "rescue from PlaB toxicity by FADD-KO", "setting": "[1]; H446 FADD-KO", "result": "effectively rescued"},
      {"measurement": "rescue from PlaB toxicity by TNFR1-KO", "setting": "[1]; H446 TNFR1-KO", "result": "effectively rescued"},
      {"measurement": "rescue from PlaB toxicity by TRADD-KO", "setting": "[1]; H446 TRADD-KO", "result": "effectively rescued"},
      {"measurement": "A-RNA induction", "setting": "[2]; 5 nM PlaB, 18 hours", "result": "induces"},
      {"measurement": "Z-Nucleic acids induction", "setting": "[2]; 5 nM PlaB, 18 hours", "result": "induces"},
      {"measurement": "A-RNA and Z-NA accumulation", "setting": "[2]; SF3B1 inhibition", "result": "accumulation"},
      {"measurement": "cell survival upon RIPK1 depletion", "setting": "[3]", "result": "rescues"},
      {"measurement": "rescue from PlaB toxicity by CASP8-KO", "setting": "[4]; H82 CASP8-KO", "result": "effectively rescued"},
      {"measurement": "rescue from PlaB toxicity by FADD-KO", "setting": "[4]; H82 FADD-KO", "result": "effectively rescued"},
      {"measurement": "rescue from PlaB toxicity by TNFR1-KO", "setting": "[4]; H82 TNFR1-KO", "result": "effectively rescued"},
      {"measurement": "rescue from PlaB toxicity by TRADD-KO", "setting": "[4]; H82 TRADD-KO", "result": "effectively rescued"},
      {"measurement": "viability", "setting": "[5]", "result": "significant decrease in viability"},
      {"measurement": "A-RNA and Z-NA accumulation", "setting": "[6]", "result": "accumulation"},
      {"measurement": "time after treatment at which cells began dying", "setting": "[7]", "result": "≤ 24", "unit": "h"},
      {"measurement": "time after treatment at which cells began dying", "setting": "[8]; MEF Flag-ZBP1", "result": "≤ 24", "unit": "h"},
      {"measurement": "survival", "setting": "[8]; MEF Flag-ZBP1, after 24 hours", "result": 20, "unit": "%"},
      {"measurement": "A-RNAs and Z-nAs", "setting": "[9]; PlaB alone", "result": "increase in both A-RNAs and Z-nAs"},
      {"measurement": "A-RNAs and Z-nAs", "setting": "[9]; [12]", "result": "still showed an increase in A-RNAs and Z-nAs"},
      {"measurement": "increase in A-RNAs relative to PlaB alone", "setting": "[9]; [12]", "result": "not as robust as PlaB alone"},
      {"measurement": "A-RNA level", "setting": "[10]; 6 hours, mouse J2 antibody, H446", "result": "robust induction"},
      {"measurement": "Z-NA level", "setting": "[10]; 6 hours, rabbit Z22 antibody, H446", "result": "significant increase"},
      {"measurement": "accumulation of A-RNA", "setting": "[10]; low dose, J2 antibody", "result": "induces accumulation"},
      {"measurement": "accumulation of Z-Nucleic acids", "setting": "[10]; low dose, Z22 antibody", "result": "induces accumulation"},
      {"measurement": "pMLKL (necroptosis)", "setting": "[11]; MEF RA", "result": "not triggered"},
      {"measurement": "PlaB-mediated necroptosis", "setting": "[11]; MEF RHIM-A mutant", "result": "avoid PlaB-mediated necroptosis"}
    ]}
  ]
}
